Data: article PMC5218480 (PLoS ONE, 2017)

System: MV-4-11 cells
Assay: Gene expression microarray analysis (Affymetrix PrimeView) and GSEA
Assay type: cell-based, human
Set-up: RFU PODN (11730768_x_at) / Fold change /veh PODN (11730768_x_at) / RFU LINC00158 (11744669_a_at) / Fold change /veh LINC00158 (11744669_a_at) / RFU DUSP10 (11751237_a_at) / Fold change /veh DUSP10 (11751237_a_at) / RFU ID3 (11757404_x_at) / Fold change /veh ID3 (11757404_x_at) / RFU PLEKHG5 (11737974_s_at) / Fold change /veh PLEKHG5 (11737974_s_at) / RFU LRRC4B (11730491_at) / Fold change /veh LRRC4B (11730491_at) / RFU GIMAP4 (11747438_a_at) / Fold change /veh GIMAP4 (11747438_a_at) / RFU KRT8 (11758183_x_at) / Fold change /veh KRT8 (11758183_x_at) / RFU CNN1 (11734310_a_at) / Fold change /veh CNN1 (11734310_a_at) / RFU VPS37D (11726825_at) / Fold change /veh VPS37D (11726825_at) / RFU C10orf10 (11716522_x_at) / Fold change /veh C10orf10 (11716522_x_at) / RFU KIR2DL2 /// KIR2DL4 /// KIR2DL5A /// KIR2DL5B /// KIR2DS1 /// KIR2DS2 /// KIR2DS3 /// KIR2DS4 /// KIR3DL3 /// KIR3DL3 /// KIR3DS1 (11738374_at) / Fold change /veh KIR2DL2 /// KIR2DL4 /// KIR2DL5A /// KIR2DL5B /// KIR2DS1 /// KIR2DS2 /// KIR2DS3 /// KIR2DS4 /// KIR3DL3 /// KIR3DL3 /// KIR3DS1 (11738374_at) / RFU C1QL1 (11718748_at) / Fold change /veh C1QL1 (11718748_at) / RFU TMPRSS4 (11747572_a_at) / Fold change /veh TMPRSS4 (11747572_a_at) / RFU HAMP (11756126_x_at) / Fold change /veh HAMP (11756126_x_at) / RFU RNFT2 (11725882_a_at) / Fold change /veh RNFT2 (11725882_a_at) / RFU NR4A2 (11747474_a_at) / Fold change /veh NR4A2 (11747474_a_at) / RFU ABCC12 (11746883_a_at) / Fold change /veh ABCC12 (11746883_a_at) / RFU TMEM136 (11760407_x_at) / Fold change /veh TMEM136 (11760407_x_at) / RFU CLDN22 /// WWC2 (11732394_at) / Fold change /veh CLDN22 /// WWC2 (11732394_at) / RFU HLA-DPB1 (11760878_x_at) / Fold change /veh HLA-DPB1 (11760878_x_at) / RFU SPINT1 (11716480_a_at) / Fold change /veh SPINT1 (11716480_a_at) / RFU GAP43 (11754022_s_at) / Fold change /veh GAP43 (11754022_s_at) / RFU A4GNT (11735810_at) / Fold change /veh A4GNT (11735810_at) / RFU PRB3 (11715151_x_at) / Fold change /veh PRB3 (11715151_x_at) / RFU TUBB4B (11761932_at) / Fold change /veh TUBB4B (11761932_at) / RFU CAPN14 (11732068_a_at) / Fold change /veh CAPN14 (11732068_a_at) / RFU TMCC2 (11721928_a_at) / Fold change /veh TMCC2 (11721928_a_at) / RFU IRGQ (11745062_a_at) / Fold change /veh IRGQ (11745062_a_at) / RFU FAM174B (11720279_a_at) / Fold change /veh FAM174B (11720279_a_at) / RFU TMPRSS4 (11748680_a_at) / Fold change /veh TMPRSS4 (11748680_a_at) / RFU FAM212B (11763350_a_at) / Fold change /veh FAM212B (11763350_a_at) / RFU PLEKHG5 (11743358_a_at) / Fold change /veh PLEKHG5 (11743358_a_at) / RFU ZSCAN30 (11745921_a_at) / Fold change /veh ZSCAN30 (11745921_a_at) / RFU CMKLR1 (11741424_a_at) / Fold change /veh CMKLR1 (11741424_a_at) / RFU LOC101060620 /// MAPK8IP1 (11723275_at) / Fold change /veh LOC101060620 /// MAPK8IP1 (11723275_at) / RFU SPTSSB (11747773_x_at) / Fold change /veh SPTSSB (11747773_x_at) / RFU PRSS12 (11739890_at) / Fold change /veh PRSS12 (11739890_at) / RFU BIN1 (11741810_x_at) / Fold change /veh BIN1 (11741810_x_at) / RFU WNT11 (11732464_a_at) / Fold change /veh WNT11 (11732464_a_at) / RFU C10orf10 (11716521_a_at) / Fold change /veh C10orf10 (11716521_a_at) / RFU C5orf56 (11738089_at) / Fold change /veh C5orf56 (11738089_at) / RFU CYB561 (11721691_x_at) / Fold change /veh CYB561 (11721691_x_at) / RFU ANKRD19P (11752326_a_at) / Fold change /veh ANKRD19P (11752326_a_at) / RFU OR2T12 /// OR2T33 /// OR2T8 (11738714_s_at) / Fold change /veh OR2T12 /// OR2T33 /// OR2T8 (11738714_s_at) / RFU VCAN (11748164_a_at) / Fold change /veh VCAN (11748164_a_at) / RFU JSRP1 (11732532_at) / Fold change /veh JSRP1 (11732532_at) / RFU KRTAP10-11 (11738290_x_at) / Fold change /veh KRTAP10-11 (11738290_x_at) / RFU MYO3A (11730013_a_at) / Fold change /veh MYO3A (11730013_a_at) / RFU EBF3 (11725865_a_at) / Fold change /veh EBF3 (11725865_a_at) / RFU CAMK2N1 (11719241_x_at) / Fold change /veh CAMK2N1 (11719241_x_at) / RFU C5orf56 (11738088_a_at) / Fold change /veh C5orf56 (11738088_a_at) / RFU OLFML3 (11715873_a_at) / Fold change /veh OLFML3 (11715873_a_at) / RFU LOC100653217 /// NTM (11731650_a_at) / Fold change /veh LOC100653217 /// NTM (11731650_a_at) / RFU MAPK11 (11762145_a_at) / Fold change /veh MAPK11 (11762145_a_at) / RFU FIZ1 (11724087_x_at) / Fold change /veh FIZ1 (11724087_x_at) / RFU OASL (11726364_x_at) / Fold change /veh OASL (11726364_x_at) / RFU SOX15 (11748057_x_at) / Fold change /veh SOX15 (11748057_x_at) / RFU CD79A (11719716_a_at) / Fold change /veh CD79A (11719716_a_at) / RFU HIST1H1D (11736915_at) / Fold change /veh HIST1H1D (11736915_at) / RFU CASKIN2 (11723855_a_at) / Fold change /veh CASKIN2 (11723855_a_at) / RFU LOC730098 (11760151_x_at) / Fold change /veh LOC730098 (11760151_x_at) / RFU OR4N2 (11742367_at) / Fold change /veh OR4N2 (11742367_at) / RFU PRRT2 (11749266_a_at) / Fold change /veh PRRT2 (11749266_a_at) / RFU SNX32 (11753110_a_at) / Fold change /veh SNX32 (11753110_a_at) / RFU CDHR5 (11726645_a_at) / Fold change /veh CDHR5 (11726645_a_at) / RFU RCAN1 (11760418_a_at) / Fold change /veh RCAN1 (11760418_a_at) / RFU FAM167A (11723789_a_at) / Fold change /veh FAM167A (11723789_a_at) / RFU FAM26E (11764081_at) / Fold change /veh FAM26E (11764081_at) / RFU ISYNA1 (11749810_s_at) / Fold change /veh ISYNA1 (11749810_s_at) / RFU ACY1 (11761880_at) / Fold change /veh ACY1 (11761880_at) / RFU 11764098_at / Fold change /veh 11764098_at / RFU SAMD14 (11745864_x_at) / Fold change /veh SAMD14 (11745864_x_at) / RFU NPB (11741838_a_at) / Fold change /veh NPB (11741838_a_at) / RFU TMPRSS6 (11731388_a_at) / Fold change /veh TMPRSS6 (11731388_a_at) / RFU KRTAP10-2 (11738614_at) / Fold change /veh KRTAP10-2 (11738614_at) / RFU ARHGAP8 /// PRR5-ARHGAP8 (11727945_x_at) / Fold change /veh ARHGAP8 /// PRR5-ARHGAP8 (11727945_x_at) / RFU KRTAP5-7 /// NADSYN1 (11734609_at) / Fold change /veh KRTAP5-7 /// NADSYN1 (11734609_at) / RFU RASL12 (11751679_a_at) / Fold change /veh RASL12 (11751679_a_at) / RFU CDKN2B (11736163_a_at) / Fold change /veh CDKN2B (11736163_a_at) / RFU PRF1 (11729649_at) / Fold change /veh PRF1 (11729649_at) / RFU, ZNF638 /// ZNF638-IT1 / Fold change vs veh, ZNF638 /// ZNF638-IT1 / RFU, PANK3 / Fold change vs veh, PANK3 / RFU, SH3YL1 / Fold change vs veh, SH3YL1 / RFU, ZEB2 / Fold change vs veh, ZEB2 / RFU, NRIP1 / Fold change vs veh, NRIP1 / RFU, PTTG1IP / Fold change vs veh, PTTG1IP / RFU, CAPN2 / Fold change vs veh, CAPN2 / RFU, MED14 / Fold change vs veh, MED14 / RFU, SNORA58 / Fold change vs veh, SNORA58 / RFU, C1orf63 / Fold change vs veh, C1orf63 / RFU, LRRFIP1 / Fold change vs veh, LRRFIP1 / RFU, NDUFAF7 / Fold change vs veh, NDUFAF7 / RFU, SLC12A2 / Fold change vs veh, SLC12A2 / RFU, IBTK / Fold change vs veh, IBTK / RFU, ESF1 / Fold change vs veh, ESF1 / Fold change vs veh, TMEM50B / RFU, TAOK1 / Fold change vs veh, TAOK1 / RFU, ACBD3 / Fold change vs veh, ACBD3 / RFU, TMA16 / Fold change vs veh, TMA16 / RFU, RWDD3 / Fold change vs veh, RWDD3 / RFU, BCAT1 / Fold change vs veh, BCAT1 / RFU, EDEM3 / Fold change vs veh, EDEM3 / RFU, TMEM33 / Fold change vs veh, TMEM33 / RFU, WDR75 / Fold change vs veh, WDR75 / RFU, AHCTF1 / Fold change vs veh, AHCTF1 / RFU, TFRC / Fold change vs veh, TFRC / RFU, ZDHHC17 / Fold change vs veh, ZDHHC17 / RFU, NOM1 / Fold change vs veh, NOM1 / RFU, ARL8B / Fold change vs veh, ARL8B / RFU, ZBTB11 / Fold change vs veh, ZBTB11 / RFU, TAMM41 / Fold change vs veh, TAMM41 / RFU, KIAA1704 /// LOC100996395 / Fold change vs veh, KIAA1704 /// LOC100996395 / RFU, ING1 / Fold change vs veh, ING1 / RFU, TRMT61B / Fold change vs veh, TRMT61B / RFU, FUBP3 / Fold change vs veh, FUBP3 / RFU, TP53 / Fold change vs veh, TP53 / RFU, TNKS2 / Fold change vs veh, TNKS2 / RFU, ZFP14 / Fold change vs veh, ZFP14 / RFU, ACTR2 / Fold change vs veh, ACTR2 / RFU, PPP3R1 / Fold change vs veh, PPP3R1 / RFU, PIK3R1 / Fold change vs veh, PIK3R1 / RFU, HNRNPA1 / Fold change vs veh, HNRNPA1 / RFU, RNF170 / Fold change vs veh, RNF170 / RFU, ZNF28 / Fold change vs veh, ZNF28 / RFU, RNGTT / Fold change vs veh, RNGTT / RFU, OGT / Fold change vs veh, OGT / RFU, BRD1 / Fold change vs veh, BRD1 / RFU, MARS / Fold change vs veh, MARS / RFU, ZNF655 / Fold change vs veh, ZNF655 / RFU, FAHD1 / Fold change vs veh, FAHD1 / RFU, BDP1 / Fold change vs veh, BDP1 / RFU, LRRCC1 / Fold change vs veh, LRRCC1 / RFU, ARID1A / Fold change vs veh, ARID1A / RFU, ZNF146 / Fold change vs veh, ZNF146 / RFU, ZNF330 / Fold change vs veh, ZNF330 / RFU, GPN3 / Fold change vs veh, GPN3 / RFU, C9orf123 / Fold change vs veh, C9orf123 / RFU, N4BP2L2 / Fold change vs veh, N4BP2L2 / RFU, ARFIP1 / Fold change vs veh, ARFIP1 / RFU, FAM179B / Fold change vs veh, FAM179B / RFU, BCL10 / Fold change vs veh, BCL10 / RFU, UHRF1BP1L / Fold change vs veh, UHRF1BP1L / RFU, BET1 / Fold change vs veh, BET1 / RFU, CNOT2 / Fold change vs veh, CNOT2 / RFU, ZNF268 / Fold change vs veh, ZNF268 / Fold change vs veh, ZNF507 / RFU, DGCR2 / Fold change vs veh, DGCR2 / RFU, WDSUB1 / Fold change vs veh, WDSUB1 / Fold change vs veh, HSP90B1 /// MIR3652 / RFU, ADSS / Fold change vs veh, ADSS / RFU, GK / Fold change vs veh, GK / RFU, ZNF148 / Fold change vs veh, ZNF148 / RFU, TAF9 / Fold change vs veh, TAF9 / RFU, SLC1A5 / Fold change vs veh, SLC1A5 / RFU, SLMO2 / Fold change vs veh, SLMO2 / RFU, ABCC4 / Fold change vs veh, ABCC4 / RFU, LOC101060439 /// RAP1B / Fold change vs veh, LOC101060439 /// RAP1B / RFU, RFX7 / Fold change vs veh, RFX7 / RFU, GTPBP10 / Fold change vs veh, GTPBP10 / RFU, CNEP1R1 / Fold change vs veh, CNEP1R1 / RFU, BIVM-ERCC5 /// ERCC5 / Fold change vs veh, BIVM-ERCC5 /// ERCC5 / RFU, ILF3 / Fold change vs veh, ILF3 / RFU 11762660_at / Fold change /veh 11762660_at / RFU VCAN (11757783_s_at) / Fold change /veh VCAN (11757783_s_at) / RFU DDX43 (11728927_at) / Fold change /veh DDX43 (11728927_at) / RFU KRT8 (11758188_x_at) / Fold change /veh KRT8 (11758188_x_at) / RFU NKD1 (11759106_at) / Fold change /veh NKD1 (11759106_at) / RFU SRD5A1 (11742802_a_at) / Fold change /veh SRD5A1 (11742802_a_at) / RFU TPSAB1 /// TPSB2 (11721975_s_at) / Fold change /veh TPSAB1 /// TPSB2 (11721975_s_at) / RFU GSTM3 (11746129_a_at) / Fold change /veh GSTM3 (11746129_a_at) / RFU IL23R (11737362_x_at) / Fold change /veh IL23R (11737362_x_at) / RFU TMEM51 (11727254_a_at) / Fold change /veh TMEM51 (11727254_a_at) / RFU PIWIL2 (11732686_x_at) / Fold change /veh PIWIL2 (11732686_x_at) / RFU ORM1 (11744905_x_at) / Fold change /veh ORM1 (11744905_x_at) / RFU CCDC152 (11743942_at) / Fold change /veh CCDC152 (11743942_at) / RFU ECM1 (11717891_a_at) / Fold change /veh ECM1 (11717891_a_at) / RFU IL23R (11748794_a_at) / Fold change /veh IL23R (11748794_a_at) / RFU TNFAIP8L3 (11732012_x_at) / Fold change /veh TNFAIP8L3 (11732012_x_at) / RFU MBOAT4 (11741988_at) / Fold change /veh MBOAT4 (11741988_at) / RFU 11764193_at / Fold change /veh 11764193_at / RFU TMEM53 (11763286_at) / Fold change /veh TMEM53 (11763286_at) / RFU MAGEB2 (11727129_at) / Fold change /veh MAGEB2 (11727129_at) / RFU TMEM200A (11744735_a_at) / Fold change /veh TMEM200A (11744735_a_at) / RFU CCDC152 (11751479_a_at) / Fold change /veh CCDC152 (11751479_a_at) / RFU FAM211A (11726209_a_at) / Fold change /veh FAM211A (11726209_a_at) / RFU RGS16 (11746705_a_at) / Fold change /veh RGS16 (11746705_a_at) / RFU VCAN (11755009_s_at) / Fold change /veh VCAN (11755009_s_at) / RFU RHOB (11743442_s_at) / Fold change /veh RHOB (11743442_s_at) / RFU RGS16 (11720943_a_at) / Fold change /veh RGS16 (11720943_a_at) / RFU RGS16 (11720944_at) / Fold change /veh RGS16 (11720944_at) / RFU, VPS4B / Fold change vs veh, VPS4B / RFU, CREB1 / Fold change vs veh, CREB1 / RFU, DNAJC13 / Fold change vs veh, DNAJC13 / RFU, GNAQ / Fold change vs veh, GNAQ / RFU, CDK5R1 / Fold change vs veh, CDK5R1 / RFU, ZRANB3 / Fold change vs veh, ZRANB3 / RFU, CUL4A / Fold change vs veh, CUL4A / RFU, CCNY / Fold change vs veh, CCNY / RFU, UFL1 / Fold change vs veh, UFL1 / RFU, COG3 / Fold change vs veh, COG3 / RFU, DIAPH2 / Fold change vs veh, DIAPH2 / RFU, SKA2 / Fold change vs veh, SKA2 / RFU, AFF3 / Fold change vs veh, AFF3 / RFU, LMF1 / Fold change vs veh, LMF1 / RFU, IPO11 / Fold change vs veh, IPO11 / RFU, DFFB / Fold change vs veh, DFFB / RFU, FOXP1 / Fold change vs veh, FOXP1 / RFU, CARD8 / Fold change vs veh, CARD8 / RFU, STRN3 / Fold change vs veh, STRN3 / RFU, ADK / Fold change vs veh, ADK / RFU, RASSF2 / Fold change vs veh, RASSF2 / RFU, WIPF1 / Fold change vs veh, WIPF1 / RFU, LARP1B / Fold change vs veh, LARP1B / RFU, RASA1 / Fold change vs veh, RASA1 / RFU, RB1 / Fold change vs veh, RB1 / RFU, PPFIA1 / Fold change vs veh, PPFIA1 / RFU, MAT2A / Fold change vs veh, MAT2A / RFU, CCT5 / Fold change vs veh, CCT5 / RFU, WDR92 / Fold change vs veh, WDR92 / RFU, CUX1 / Fold change vs veh, CUX1 / RFU, TTC7A / Fold change vs veh, TTC7A / RFU, TMEM135 / Fold change vs veh, TMEM135 / RFU, DEPTOR / Fold change vs veh, DEPTOR / RFU, CPM / Fold change vs veh, CPM / RFU, DNAJB6 / Fold change vs veh, DNAJB6 / RFU, CACNA2D3 / Fold change vs veh, CACNA2D3 / RFU, DTX4 / Fold change vs veh, DTX4 / RFU, TFCP2 / Fold change vs veh, TFCP2 / RFU, GMCL1 /// GMCL1P1 / Fold change vs veh, GMCL1 /// GMCL1P1 / RFU, AEBP2 / Fold change vs veh, AEBP2 / RFU, SNHG1 /// SNORD22 /// SNORD25 /// SNORD26 /// SNORD27 /// SNORD28 /// SNORD29 /// SNORD31 / Fold change vs veh, SNHG1 /// SNORD22 /// SNORD25 /// SNORD26 /// SNORD27 /// SNORD28 /// SNORD29 /// SNORD31 / Fold change (Aza/veh), C12orf56 (ProbeSet 11735607_a_at) / Fold change (ACY-1035/veh), C12orf56 (ProbeSet 11735607_a_at) / Fold change (Aza/veh), FGFR1OP (ProbeSet 11751329_s_at) / Fold change (ACY-1035/veh), FGFR1OP (ProbeSet 11751329_s_at) / Fold change (Aza/veh), VPS36 (ProbeSet 11739960_a_at) / Fold change (ACY-1035/veh), VPS36 (ProbeSet 11739960_a_at) / RFU SYPL1 (11715823_x_at) / Fold change /veh SYPL1 (11715823_x_at) / RFU IGFBP7 (11715501_s_at) / Fold change /veh IGFBP7 (11715501_s_at) / RFU REEP3 (11722064_at) / Fold change /veh REEP3 (11722064_at) / RFU IGLL1 (11728026_x_at) / Fold change /veh IGLL1 (11728026_x_at): dose or concentration left out as unconfirmed
Details: MV-4-11 cells, 48 hours

SMILES: Nc1ncn([C@@H]2O[C@H](CO)[C@@H](O)[C@H]2O)c(=O)n1 [azacitidine]
- RFU VCAN (11748164_a_at): 5.82 RFU
